# “Also recorded” adds a separate entry of the source.
# How the values were obtained:
# [1] = tested on: female 129S6/SvEv mice; test: Forced swim test (FST), immobility time, after stress; settings: for Immobility in the FST (Day 1 and Day 2) vs saline: drug administered 1 hour after 3-shock CFC stressor; for Prophylactic efficacy against stress-induced depressive-like behavior: single injection 1 week before stressor
# [2] = tested on: mice; settings: sub-anesthetic doses; cited from earlier work
# [3] = Ovariectomized cohort, 1 week prophylactic drug, Forced Swim Test Day 1, OVX mice, K (10), (2R,6R)-HNK (0.025)
# [4] = Ovariectomized cohort, 1 week prophylactic drug, Forced Swim Test Day 1, Sham mice, K (10), (2R,6R)-HNK (0.025)
# [5] = Ovariectomized cohort, 1 week prophylactic drug, Forced Swim Test Day 1, Sham vs OVX, same drug, K (10), (2R,6R)-HNK (0.025)
# [6] = Ovariectomized, E2/P4 replacement, 1 week prophylactic drug, Forced Swim Test Day 2, K (10), (2R,6R)-HNK (0.025), FIG. 5F
# [7] = Ovariectomized, same drug, hormone Vehicle vs. E2/P4 replacement, 1 week prophylactic drug, Forced Swim Test Day 2, K (10), (2R,6R)-HNK (0.025), FIG. 5F
# [8] = Sal vs. K (2.5), Fisher's PLSD, 3 day prophylactic drug/Forced Swim Test Day 1
# [9] = Sal vs. K (10), Fisher's PLSD, 1 week prophylactic drug, learned helplessness stress, Forced Swim Test Day 1
# [10] = Sal vs. K (10), Fisher's PLSD, 3 day prophylactic drug/Forced Swim Test Day 1
# [11] = Sal vs. K (10), Fisher's PLSD, Antidepressant drug/Forced Swim Test Day 2
# [12] = Sal vs. K (30), Fisher's PLSD, 3 day prophylactic drug/Forced Swim Test Day 1
# [13] = Sham-operated females, 1 week prophylactic drug, Forced Swim Test Day 2, K (10), (2R,6R)-HNK (0.025), FIG. 5C
# [14] = female mice, listed as (R, S)-ketamine
smiles,measurement,setting,value
"CNC1(c2ccccc2Cl)CCCCC1=O (racemic) [(R,S)-ketamine, (RS)-2-(2-chlorophenyl)-2-(methylamino)cyclohexanone]","p, Immobility Time Average (min 3-6)","[1]; Forced Swim Test Day 1, Dunnett test Sal vs. drug (30), 1 week prophylactic drug",0.5081
same,"p, Immobility Time (min 1-6), OVX Sal vs OVX drug",[1]; [3],0.0920
same,"p, Immobility Time Average (min 3-6), Fisher's PLSD, OVX Sal vs OVX drug",[1]; [3],0.0570
same,"* (significance), Immobility Time (min 1-6), Sham Sal vs Sham drug",[1]; [4],* (* p<0.05)
same,"* (significance), Immobility Time Average (min 3-6), Fisher's PLSD, Sham Sal vs Sham drug",[1]; [4],* (* p<0.05)
same,"p, Immobility Time (min 1-6), Sham Sal vs Sham drug",[1]; [4],0.0140
same,"p, Immobility Time Average (min 3-6), Fisher's PLSD, Sham Sal vs Sham drug",[1]; [4],0.0114
same,"* (significance), Immobility Time Average (min 3-6), Fisher's PLSD, Sham drug vs OVX drug",[1]; [5],* (* p<0.05)
same,"p, Immobility Time (min 1-6), Sham drug vs OVX drug",[1]; [5],0.0533
same,"p, Immobility Time Average (min 3-6), Fisher's PLSD, Sham drug vs OVX drug",[1]; [5],0.0233
same,"p, Fisher's PLSD, Immobility Time Average (min 3-6), OVX Sal vs. OVX drug","[1]; Ovariectomized females, 1 week prophylactic drug, Forced Swim Test Day 2, K (10), (2R,6R)-HNK (0.025), FIG. 5C",0.7305
same,"p, Fisher's PLSD, Immobility Time Average (min 3-6), E2/P4 Sal vs. E2/P4 drug",[1]; [6],0.0196
same,"significance (*), Fisher's PLSD, Immobility Time Average (min 3-6), E2/P4 Sal vs. E2/P4 drug",[1]; [6],* (* p<0.05)
same,"p, Fisher's PLSD, Immobility Time Average (min 3-6), Vehicle Sal vs. Vehicle drug","[1]; Ovariectomized, hormone Vehicle, 1 week prophylactic drug, Forced Swim Test Day 2, K (10), (2R,6R)-HNK (0.025), FIG. 5F",0.9193
same,"p, Fisher's PLSD, Immobility Time Average (min 3-6), Vehicle drug vs. E2/P4 drug",[1]; [7],0.0089
same,"significance (*), Fisher's PLSD, Immobility Time Average (min 3-6), Vehicle drug vs. E2/P4 drug",[1]; [7],** (** p<0.01)
same,"p, Immobility Time (min 1)",[1]; [8],0.9401
same,"p, Immobility Time (min 2)",[1]; [8],0.6027
same,"p, Immobility Time (min 3)",[1]; [8],0.5146
same,"p, Immobility Time (min 4)",[1]; [8],0.9632
same,"p, Immobility Time (min 5)",[1]; [8],0.6706
same,"p, Immobility Time (min 6)",[1]; [8],0.7202
same,"p, Immobility Time Average (min 3-6)",[1]; [8],0.6884
same,"*, Immobility Time (min 1)",[1]; [9],*** (*** p<0.0001)
same,"*, Immobility Time (min 2)",[1]; [9],** (** p<0.01)
same,"*, Immobility Time (min 3)",[1]; [9],** (** p<0.01)
same,"*, Immobility Time (min 4)",[1]; [9],** (** p<0.01)
same,"*, Immobility Time (min 5)",[1]; [9],** (** p<0.01)
same,"*, Immobility Time (min 6)",[1]; [9],*** (*** p<0.0001)
same,"*, Immobility Time Average (min 1-6)",[1]; [9],*** (*** p<0.0001)
same,"p, Immobility Time (min 1)",[1]; [9],<0.0001
same,"p, Immobility Time (min 2)",[1]; [9],0.0002
same,"p, Immobility Time (min 3)",[1]; [9],0.0002
same,"p, Immobility Time (min 4)",[1]; [9],0.0090
same,"p, Immobility Time (min 5)",[1]; [9],0.0016
same,"p, Immobility Time (min 6)",[1]; [9],0.0001
same,"p, Immobility Time Average (min 1-6)",[1]; [9],<0.0001
same,"p, Immobility Time (min 1)",[1]; [10],0.9371
same,"p, Immobility Time (min 2)",[1]; [10],0.5853
same,"p, Immobility Time (min 3)",[1]; [10],0.7490
same,"p, Immobility Time (min 4)",[1]; [10],0.6033
same,"p, Immobility Time (min 5)",[1]; [10],0.9482
same,"p, Immobility Time (min 6)",[1]; [10],0.9756
same,"p, Immobility Time Average (min 3-6)",[1]; [10],0.9690
same,"*, Immobility Time (min 1)",[1]; [11],* (* p<0.05)
same,"p, Immobility Time (min 1)",[1]; [11],0.0187
same,"p, Immobility Time (min 1)",[1]; [12],0.6395
same,"p, Immobility Time (min 2)",[1]; [12],0.9313
same,"p, Immobility Time (min 3)",[1]; [12],0.7755
same,"p, Immobility Time (min 4)",[1]; [12],0.5198
same,"p, Immobility Time (min 5)",[1]; [12],0.9023
same,"p, Immobility Time (min 6)",[1]; [12],0.5995
same,"p, Immobility Time Average (min 3-6)",[1]; [12],0.8325
same,"p, Fisher's PLSD, Immobility Time Average (min 3-6), Sham drug vs. OVX drug","[1]; Same drug, Sham vs. ovariectomized, 1 week prophylactic drug, Forced Swim Test Day 2, K (10), (2R,6R)-HNK (0.025), FIG. 5C",0.2375
same,"p, Fisher's PLSD, Immobility Time Average (min 3-6), Sham Sal vs. Sham drug",[1]; [13],0.0405
same,"significance (*), Fisher's PLSD, Immobility Time Average (min 3-6), Sham Sal vs. Sham drug",[1]; [13],* (* p<0.05)
same,Immobility in the FST (Day 1 and Day 2) vs saline,[1]; female mice,"Neither (R,S)-ketamine nor (2R,6R)-HNK significantly affected immobility time"
same,Immobility in the FST (Day 1 and Day 2) vs saline,[1]; [14],did not reduce immobility levels
same,Prophylactically effective dose in females,"[1]; female mice, 1 week before stressor",10 mg/kg
same,Immobility in the FST vs saline,"[1]; ovariectomized mice with cyclic E2 and P4 replacement, drug 1 week before CFC, listed as (R, S)-ketamine",significantly less immobile compared to control saline mice; also recorded: significantly reduced immobility
same,Prophylactic efficacy against stress-induced depressive-like behavior,[1]; female mice,significantly reduced stress-induced depressive-like behavior; also recorded: significantly decreased stress-induced depressive-like behavior; also recorded: effective prophylactics against a variety of stressors; also recorded: protect against stress-induced depressive-like behavior
same,Prophylactic efficacy against stress-induced depressive-like behavior,[1]; [14],prophylactic against stress-induced depressive-like behavior
same,Antidepressant onset,[2],30 min
